Assays:
AsPC-1 cells = assay: AsPC-1 CTG proliferation assay (120 h) (pancreatic cancer, G12D); format: cell-based; settings: Homo sapiens, ASPC1
How it was run: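 AsPC-1 cells (KRAS G12D), 2000/well in RPMI with 10% FCS, seeded overnight, then treated with compound for 120 h at 37 °C. Viability by CellTiter-Glo luminescence as percent of DMSO control. IC50 from a four-parameter non-linear fit.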

[1] = Caco-2 assay (permeability PappAB, PappBA, efflux ratio); format: in vitro ADME; settings: human, Caco-2, 10 μM test compound, pH 7.4; for Papp A→B at 90 min, 10 μM: apical to basolateral; for efflux ratio at 90 min, 10 μM: efflux ratio PappBA/PappAB, read-out: Caco ER
How it was run: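 Confluent Caco-2 monolayers on filter supports, 0.25% BSA in both donor and receiver buffer; transport measured a-b and b-a. After 25-30 min preincubation at 37 °C, samples at 0, 30, 60, 90 min quantified by HPLC/MS/MS. Papp from receiver amount per time, filter area and initial donor concentration; efflux ratio = PappBA/PappAB.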

LOVO cells = assay: LOVO CTG proliferation assay (120 h) (CRC, G13D); format: cell-based; settings: Homo sapiens, CTG 120 h
How it was run: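 LOVO cells, 1000 per well in DMEM + 10% FCS, were plated overnight and then dosed with compound from DMSO stock. After 120 h at 37 °C, viability was read by CellTiter-Glo luminescence as a percentage of DMSO controls. IC50 was derived by four-parameter non-linear regression.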

SAS cells = assay: SAS CTG proliferation assay (120 h) (HNSCC, wt amplified); format: cell-based
How it was run: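 SAS cells plated at 300 per well in DMEM:F12 with 10% FCS and left overnight, then given compounds acoustically. After 120 h exposure, viability read by CellTiter-Glo as percent of DMSO control. IC50 from four-parameter non-linear regression.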

[2] = system: KRAS G12D-dependent Ba/F3 cells; assay: Ba/F3 proliferation assay, KRAS G12D; format: cell-based; settings: Mus musculus, BaF3, 72 h, AlamarBlue
How it was run: (§1)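 Ba/F3 cells retrovirally transduced with KRAS G12 mutants, puromycin-selected and grown without IL-3, so proliferation depends on the mutant KRAS. Compounds tested in technical duplicates; viability read by AlamarBlue fluorescence, with curve fitting for potency.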

[3] = system: KRAS G12V-dependent Ba/F3 cells; assay: Ba/F3 proliferation assay, KRAS G12V; format: cell-based; settings: Mus musculus, BaF3, 72 h, AlamarBlue;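 further: proliferation IC50 in KRAS G12V-dependent Ba/F3 cells read by AlamarBlue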
How it was run: as §1

[4] = system: KRAS G12C-dependent Ba/F3 cells; assay: Ba/F3 proliferation assay, KRAS G12C; format: cell-based; settings: Mus musculus, BaF3, 72 h, AlamarBlue
How it was run: as §1

Row | SMILES | IC50 (AsPC-1 cells) [nM] | Papp A→B at 90 min, 10 μM [1] [×10⁻⁶ cm/s] | efflux ratio at 90 min, 10 μM [1] | IC50 (LOVO cells) [nM] | IC50 (SAS cells) [nM] | IC50 [2] [nM] | IC50 [3] [nM] | IC50 [4] [nM]
1 | C[C@H](Oc1cc([C@H]2CCOC2)nc(-c2noc3c2CCC[C@@]32CCCc3sc(N)c(C#N)c32)n1)[C@@H]1CCCN1C [II-88] | 1980 | 12 | 1.8 | 62 | 2220 | 15 | 6 | 6
2 | C[C@H](Oc1cc(-c2ccn(-c3ccccc3)n2)nc(-c2noc3c2CCC[C@@]32CCCc3sc(N)c(C#N)c32)n1)[C@@H]1CCCN1C [II-89] | 3040 | < 10 |  | 453 | 246 | 199 | 18 | 57
3 | C[C@H](Oc1cc(-n2ccnc2)nc(-c2noc3c2CCC[C@@]32CCCc3sc(N)c(C#N)c32)n1)[C@@H]1C[C@@H](F)CN1C [II-120] | 3510 | 8 | 1.5 | 401 | 488 | 149 | 13 | 27
4 | C[C@H](Oc1cc(N2CC[C@@H](O)C2)nc(-c2noc3c2CCC[C@@]32CCCc3sc(N)c(C#N)c32)n1)[C@@H]1CCCN1C [II-66] | 3970 | < 2.9 |  | 3680 | 60 | 71 | 29 | 54
5 | CO[C@@H]1C[C@@H]([C@H](C)Oc2cc(-c3ccn(C4COC4)n3)nc(-c3noc4c3CCC[C@@]43CCCc4sc(N)c(C#N)c43)n2)N(C)C1 [II-107] | 7270 | 10 | 2.4 | 1010 | 7 | 19 | 8 | 5
6 | C[C@H](Oc1cc(-n2cncn2)nc(-c2noc3c2CCC[C@@]32CCCc3sc(N)c(C#N)c32)n1)[C@@H]1CCCN1C [II-70] | 1940 | 17 | 1.4 | 77 | 41 | 47 | 5 | 25
7 | C[C@H](Oc1cc(-c2cc[nH]n2)nc(-c2noc3c2CCC[C@@]32CCCc3sc(N)c(C#N)c32)n1)[C@@H]1CCCN1C [II-71] | 1670 | 0.5 | 63.3 | 50 | 47 | 41 | 8 | 28
8 | C[C@H](Oc1cc([C@@H]2CCOC2)nc(-c2noc3c2CCC[C@@]32CCCc3sc(N)c(C#N)c32)n1)[C@@H]1CCCN1C [II-94] | 985 | 13 | 2.1 | 51 | 82 | 11 | 3 | 5
9 | C[C@H](Oc1cc(-n2ccc(-c3ccccn3)n2)nc(-c2noc3c2CCC[C@@]32CCCc3sc(N)c(C#N)c32)n1)[C@@H]1CCCN1C [II-119] | 1320 | 1 | 1.1 | 152 | 39 | 51 | 6 | 8
10 | C[C@H](Oc1cc(-c2ccn(C[C@@H](C)O)n2)nc(-c2noc3c2CCC[C@@]32CCCc3sc(N)c(C#N)c32)n1)[C@@H]1CCCN1C [II-117] | 1660 | 1.4 | 20.7 | 58 | 22 | 36 | 6 | 7
11 | C[C@H](Oc1cc(-c2ccccn2)nc(-c2noc3c2CCC[C@@]32CCCc3sc(N)c(C#N)c32)n1)[C@@H]1CCCN1C [II-85] | 1290 |  | 1.2 | 209 | 26 | 72 | 8 | 19
12 | C[C@H](Oc1cc(-c2ccc(N)nc2)nc(-c2noc3c2CCC[C@@]32CCCc3sc(N)c(C#N)c32)n1)[C@@H]1CCCN1C [II-101] | 2990 | 2 | 7 | 1020 | 130 | 155 | 28 | 51
